Test: Ionizable cationic lipid library screen, in vitro delivery of luciferase mRNA (mLuc)
Type: cell-based
Settings: 18*8 library, LNPs with DOPE, cholesterol, DMG-PEG
Description: In some embodiments, an ionizable cationic lipid is generally composed of three parts: (1) one or more hydrophilic headgroups containing one or multiple ionizable amines for condensing negatively charged mRNA; (2) one or more hydrophobic hydrocarbon chains capable of promoting self-assembly and phospholipid membrane fusion; and (3) one or more degradable ester linkers connecting the headgroups with the hydrocarbon chains to potentially lower systemic cytotoxicity, as shown in FIG. 9B. In some embodiments, a new library of ionizable cationic lipids is provided, with ionizable amine headgroups derived from different amino alcohols and hydrocarbon lipid chains derived from commercially available lipid acids. In some embodiments, using CALB enzyme-assisted reaction, the hydroxyl groups were reacted with carboxylic acids via one-step high-efficiency esterification, as shown in FIG. 9A. An 18*8 library of lipid-like materials was synthesized by varying amino alcohols and lipid acids. These lipid-like materials with DOPE, cholesterol, and DMG-PEG were fabricated at a molar ratio of 50:10:38.5:1.5, which was a widely used formulation to form LNPs and delivered luciferase encoded mRNA (mLuc) in vitro to generate a luciferase expression heat map of lipid-like materials. […]

SMILES: CCCCC/C=C\C/C=C\CCCCCCCC(=O)OCCN1CCN(CCOC(=O)CCCCCCC/C=C\C/C=C\CCCCC)CC1 [AA3-DLin]
- rank in luciferase expression screen of lipid-like materials: top-performing
